In general, inhibition refers to the relative decrease from the control value, in per cent.

Molecules are shown by their SMILES.

For one assay, the system named is SNB-75. Description: NCI-60 antiproliferative screen (SRB). To be noted: Homo sapiens, SNB-75, 48 h, read-out: Growth inhibition (%).
Description: Anticancer activity was tested against 60 cancer cell lines (NCI-60) after 48h treatments with a single dosage of 10 μM of compounds by using sulforhodamine B assay [39] on the traditional 96-well platform. […] The human cancer cell lines of the NCI-60 panel are grown in RPMI 1640 medium supplemented with 5% FBS (fetal bovine serum) and 2 mM L-glutamine. […] For further analysis of promising compounds, five dose screens were performed against the NCI-60 panel. Drug treatments are performed in 5 doses using 10-fold or ½ log dose dilutions.
For the compound `O=C1Nc2cc(Cl)ccc2C1=Cc1ccc(OCc2ccccc2)cc1` (mixture of isomers) [Compound 5d, (E/Z)-3-[4-(Benzyloxy)benzylidene]-6-chloroindolin-2-one], the inhibition at 10 µM worked out at 26.7%.

For `O=C1Nc2cc(Cl)ccc2C1=Cc1ccc(OCc2ccncc2)cc1` (mixture of isomers) [Compound 5p, (E/Z)-6-Chloro-3-[4-(pyridin-4-ylmethoxy)benzylidene]indolin-2-one], the inhibition at 10 µM was determined as 14.9%.

Regarding `O=C1Nc2cc(Cl)ccc2C1=Cc1ccc(OCc2ccccn2)cc1` (mixture of isomers) [Compound 5h, (E/Z)-6-Chloro-3-[4-(pyridin-2-ylmethoxy)benzylidene]indolin-2-one], the inhibition at 10 µM was 63.3%.

With `O=C1Nc2ccc(Cl)cc2C1=Cc1ccc(OCc2ccccc2)cc1` (mixture of isomers) [Compound 5c, (E/Z)-3-[4-(Benzyloxy)benzylidene]-5-chloroindolin-2-one], the inhibition at 10 µM came to 13.1%.

`O=C1Nc2ccccc2C1=Cc1ccc(OCc2cccnc2)cc1` (mixture of isomers) [Compound 5i, (E/Z)-3-[4-(Pyridin-3-ylmethoxy)benzylidene]indolin-2-one]: the inhibition at 10 µM was -1.11%.

On to `O=C1Nc2ccc(Cl)cc2C1=Cc1ccc(OCc2cccnc2)cc1` (mixture of isomers) [Compound 5k, (E/Z)-5-Chloro-3-[4-(pyridin-3-ylmethoxy)benzylidene] indolin-2-one], for which the inhibition at 10 µM is -10.2%.

As to `O=C1Nc2ccccc2C1=Cc1ccc(OCc2ccccn2)cc1` (mixture of isomers) [Compound 5e, (E/Z)-3-[4-(Pyridin-2-ylmethoxy]benzylidene) indolin-2-one], the inhibition at 10 µM worked out at 34.7%.

Regarding `O=C1Nc2ccccc2C1=Cc1ccc(OCc2ccccc2)cc1` (mixture of isomers) [Compound 5a, (E/Z)-3-[4-(Benzyloxy)benzylidene] indolin-2-one], the inhibition at 10 µM was 14.6%.

Consider `O=C1Nc2ccc(F)cc2C1=Cc1ccc(OCc2ccccc2)cc1` (mixture of isomers) [Compound 5b, (E/Z)-3-[4-(Benzyloxy)benzylidene]-5-fluoroindolin-2-one], for which the inhibition at 10 µM came out at 5.15%.

As for `O=C1Nc2ccc(F)cc2C1=Cc1ccc(OCc2cccnc2)cc1` (mixture of isomers) [Compound 5j, (E/Z)-5-Fluoro-3-[4-(pyridin-3-ylmethoxy)benzylidene]indolin-2-one], the inhibition at 10 µM was -5.67%.

`O=C1Nc2ccc(F)cc2C1=Cc1ccc(OCc2ccccn2)cc1` (mixture of isomers) [Compound 5f, (E/Z)-5-fluoro-3-[4-(pyridin-2-ylmethoxy)benzylidene]indolin-2-one]: the inhibition at 10 µM amounted to 10.2%.

As to `O=C1Nc2ccc(Cl)cc2C1=Cc1ccc(OCc2ccncc2)cc1` (mixture of isomers) [Compound 5o, (E/Z)-5-Chloro-3-[4-(pyridin-4-ylmethoxy)benzylidene] indolin-2-one], the inhibition at 10 µM is 21.2%.

As to `O=C1Nc2ccc(F)cc2C1=Cc1ccc(OCc2ccncc2)cc1` (mixture of isomers) [Compound 5n, (E/Z)-5-Fluoro-3-[4-(pyridin-4-ylmethoxy)benzylidene] indolin-2-one], the inhibition at 10 µM was determined as 26.6%.

Consider `O=C1Nc2ccccc2C1=Cc1ccc(OCc2ccncc2)cc1` (mixture of isomers) [Compound 5m, (E/Z)-3-[4-(Pyridin-4-ylmethoxy)benzylidene] indolin-2-one], for which the inhibition at 10 µM was 35.2%.

Another assay concerns NCI-H522. Kind of assay: NCI-60 antiproliferative screen (SRB). To be noted: Homo sapiens; 10 µM single dose, 48 h; NCI-H522 (NSCLC); read-out: Growth inhibition (%). Type of assay: cell-based, human.
Regarding `O=C1Nc2cc(Cl)ccc2C1=Cc1ccc(OCc2ccccc2)cc1` (mixture of isomers) [Compound 5d, (E/Z)-3-[4-(Benzyloxy)benzylidene]-6-chloroindolin-2-one], the inhibition at 10 µM came to 0.19%.

In the case of `O=C1Nc2cc(Cl)ccc2C1=Cc1ccc(OCc2ccncc2)cc1` (mixture of isomers) [Compound 5p, (E/Z)-6-Chloro-3-[4-(pyridin-4-ylmethoxy)benzylidene]indolin-2-one], the inhibition at 10 µM came out at 45.2%.

Regarding `O=C1Nc2cc(Cl)ccc2C1=Cc1ccc(OCc2ccccn2)cc1` (mixture of isomers) [Compound 5h, (E/Z)-6-Chloro-3-[4-(pyridin-2-ylmethoxy)benzylidene]indolin-2-one], the inhibition at 10 µM is 31.6%.

As to `O=C1Nc2ccc(Cl)cc2C1=Cc1ccc(OCc2ccccc2)cc1` (mixture of isomers) [Compound 5c, (E/Z)-3-[4-(Benzyloxy)benzylidene]-5-chloroindolin-2-one], the inhibition at 10 µM stood at 2.1%.

Consider `O=C1Nc2ccccc2C1=Cc1ccc(OCc2cccnc2)cc1` (mixture of isomers) [Compound 5i, (E/Z)-3-[4-(Pyridin-3-ylmethoxy)benzylidene]indolin-2-one], for which the inhibition at 10 µM worked out at 49.9%.

With `O=C1Nc2ccc(Cl)cc2C1=Cc1ccc(OCc2cccnc2)cc1` (mixture of isomers) [Compound 5k, (E/Z)-5-Chloro-3-[4-(pyridin-3-ylmethoxy)benzylidene] indolin-2-one], the inhibition at 10 µM was found to be 19.8%.

Take `O=C1Nc2ccccc2C1=Cc1ccc(OCc2ccccn2)cc1` (mixture of isomers) [Compound 5e, (E/Z)-3-[4-(Pyridin-2-ylmethoxy]benzylidene) indolin-2-one]: the inhibition at 10 µM came to 24.6%.

As to `O=C1Nc2ccccc2C1=Cc1ccc(OCc2ccccc2)cc1` (mixture of isomers) [Compound 5a, (E/Z)-3-[4-(Benzyloxy)benzylidene] indolin-2-one], the inhibition at 10 µM was found to be 2.18%.

With `O=C1Nc2ccc(F)cc2C1=Cc1ccc(OCc2ccccc2)cc1` (mixture of isomers) [Compound 5b, (E/Z)-3-[4-(Benzyloxy)benzylidene]-5-fluoroindolin-2-one], the inhibition at 10 µM turned out to be 5.91%.

Take `O=C1Nc2ccc(F)cc2C1=Cc1ccc(OCc2cccnc2)cc1` (mixture of isomers) [Compound 5j, (E/Z)-5-Fluoro-3-[4-(pyridin-3-ylmethoxy)benzylidene]indolin-2-one]: the inhibition at 10 µM was determined as 89.5%.

With `O=C1Nc2ccc(F)cc2C1=Cc1ccc(OCc2ccccn2)cc1` (mixture of isomers) [Compound 5f, (E/Z)-5-fluoro-3-[4-(pyridin-2-ylmethoxy)benzylidene]indolin-2-one], the inhibition at 10 µM turned out to be 68.1%.

Consider `O=C1Nc2ccc(Cl)cc2C1=Cc1ccc(OCc2ccncc2)cc1` (mixture of isomers) [Compound 5o, (E/Z)-5-Chloro-3-[4-(pyridin-4-ylmethoxy)benzylidene] indolin-2-one], for which the inhibition at 10 µM was 86%.

Take `O=C1Nc2ccc(F)cc2C1=Cc1ccc(OCc2ccncc2)cc1` (mixture of isomers) [Compound 5n, (E/Z)-5-Fluoro-3-[4-(pyridin-4-ylmethoxy)benzylidene] indolin-2-one]: the inhibition at 10 µM stood at 82%.

As for `O=C1Nc2ccccc2C1=Cc1ccc(OCc2ccncc2)cc1` (mixture of isomers) [Compound 5m, (E/Z)-3-[4-(Pyridin-4-ylmethoxy)benzylidene] indolin-2-one], the inhibition at 10 µM worked out at 32.7%.
